{
  "source": "patent US8093273B2",
  "about": "“Flavanoids and isoflavanoids for the prevention and treatment of cardiovascular diseases” (Resverlogix Corp., priority 2004, dated 2012)",
  "key": {"ApoA-I protein": {"test_system": "ApoA-I protein", "assay": "ApoA-I protein expression in HepG2 cells (ELISA of conditioned media)", "format": "cell-based, human", "settings": "7.5 μM", "description": "This study confirmed that compounds of the invention have an effect on ApoA-I protein secretion in HepG2 (liver) cells by measuring whether stimulation of transcriptional activity of the endogenous ApoA-I promoter in the HepG2 cells increased the abundance and secretion of ApoA-I protein.\nThe HepG2 cell line was obtained from the ATCC and cultured in MEM media supplemented with 10% FBS (Gibco), with 1 mM sodium pyruvate, 0.1 mM MEM non-essential amino acid, 2 mM L-glutamine, 100 U/ml penicillin, 100 μg/ml streptomycin and 5 μg/ml plasmocin. Cells were maintained at 37° C. in an atmosphere of 5% CO2 Cells were grown to 85% confluency prior to initiating the experiment.\nCells were plated and allowed to adhere overnight in a phenol red-free DMEM containing 10% of Charcoal/Dextran treated FBS (Hyclone), with 1 mM sodium pyruvate, 0.1 mM MEM non-essential amino acid, 2 mM L-glutamine, 100 U/ml penicillin, 100 μg/ml streptomycin and 5 μg/ml plasmocin. The medium was removed, and cells were washed in 1×PBS. Cells were then starved in phenol red-free DMEM (serum free) for a period of 24 hours. Cells were then mock treated (untreated, DMSO), or treated with compound of the invention diluted in phenol red-free DMEM (serum free) media at a concentration of 7.5 μM. Cells and media were harvested at 0, 6 and 24 hours following compound treatment.\nMedium was removed from cells at the desired times and applied to a solid phase capture sandwich in an ELISA assay according to manufacturer's instructions (Total human Apolipoprotein ELISA Assay-Alercheck)."}, "Caco-2 permeability": {"assay": "Caco-2 permeability", "format": "in vitro ADME, human", "settings": "human, Caco-2", "excerpt": "The Caco-2 cell drug transport model is widely used for screening compounds in drug discovery to assess intestinal transport and predict absorption rates."}, "hApoA-I transgenic mice": {"test_system": "hApoA-I transgenic mice", "assay": "hApoA-I transgenic mice, oral gavage for 14 days", "format": "in vivo", "settings": "Mus musculus, po, 336 h, relative to pretreatment, read-out: ApoA-I (% change); for change in vivo at 10 mg/kg: 10 mg/kg BID 14 days", "method_in_brief": "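Male hApoA-I transgenic mice (7–8 weeks) dosed orally by gavage daily for 14 days, BID or SID, as suspensions at 5 mL/kg in 0.5% methylcellulose/1% Tween 80 or F-101; fenofibrate 100 mg/kg as positive control. After a 4 h fast on day 15, plasma ApoA-I, HDL-C, total cholesterol and triglycerides measured relative to pre-bleed-matched groups.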"}},
  "note": "Where two headings read alike, the source gives them in different places.",
  "data": [
    {"smiles": "O=c1cc(-c2ccc(O)cc2)oc2ncccc12", "note": "[Example 34, 2-(4-Hydroxy-phenyl)-pyrano[2,3-b]pyridin-4-one]", "values": [
      {"measurement": "ApoA-I content in the medium (ELISA)", "setting": "ApoA-I protein; 6 and 24 hours, vs untreated cells and cells treated with solvent", "value": "increased significantly"},
      {"measurement": "time after addition of compound at which ApoA-I levels in the medium start to increase", "setting": "ApoA-I protein; time course 0, 6, 24 hours", "value": "~6", "unit": "h"},
      {"measurement": "Papp", "setting": "Caco-2 permeability", "value": 6.36, "unit": "×10⁻⁶ cm/s"},
      {"measurement": "change in vivo at 3 mg/kg", "setting": "hApoA-I transgenic mice; Table 6 first group, 3 mg/kg BID 14 days, Control 1 (0.5% MC & 1% Tween 80) 11.94", "value": 18.9, "unit": "%"},
      {"measurement": "change in vivo at 10 mg/kg", "setting": "hApoA-I transgenic mice; Table 6 first group, Control 1 11.94", "value": 36.6, "unit": "%"},
      {"measurement": "change in vivo at 30 mg/kg", "setting": "hApoA-I transgenic mice; Table 6 first group, 30 mg/kg BID 14 days, Control 1 11.94", "value": 47.5, "unit": "%"},
      {"measurement": "change in vivo at 10 mg/kg", "setting": "hApoA-I transgenic mice; Table 6 third group, Control 3 (F-101) (6.32)", "value": 30.9, "unit": "%"}
    ]}
  ]
}
